The test concerns rivaroxaban rabbit model. Kind of test: reversal of anticoagulation in a rivaroxaban rabbit model (claw cut). Format: in vivo, New Zealand White rabbits. The procedure:
In doing so, anesthetized New Zealand White rabbits were treated with the factor Xa inhibitor rivaroxaban to achieve anticoagulation. The increased tendency to bleed associated with anticoagulation was determined by cutting the claws. Upon intravenous administration of prethrombin-1, the blood loss was measured again after the claws had been cut.

Several values for one entry are separate records, joined by “and”; a condition that tells them apart may be missing. Equal entries are not always repeated.

As to `O=C(NC[C@H]1CN(c2ccc(N3CCOCC3=O)cc2)C(=O)O1)c1ccc(Cl)s1` [rivaroxaban], the “Blood loss after rivaroxaban” value (rivaroxaban 7 μg/kg body weight) is on record as 22.3 mg; the “Blood loss after rivaroxaban” value (rivaroxaban 14 μg/kg body weight) came to 11.3 mg; the “Blood loss after rivaroxaban” value (rivaroxaban 35 μg/kg body weight) came out at 30.4 mg; the “Blood loss after rivaroxaban” value (rivaroxaban 70 μg/kg body weight, individual rabbits) is 165.0 mg and 98.7 mg and 20.8 mg and 51.8 mg and 77.4 mg and 108.5 mg and 51.2 mg.

Values taken from patent US20260007727A1, “DRUG THAT PROMOTES HEMOSTASIS” (BIOMEDIZINISCHE FORSCHUNG & BIO-PRODUKTE GMBH, priority 2022, published 2026).
